pIC50: −log10 of the molar value.
Experiments:
[1] = target: recombinant intracellular human glutaminyl cyclase (Homo sapiens, UniProt Q9NXS2); assay: Enzymatic activity of human glutaminyl cyclase in vitro (fluorescent substrate Gln-bNA); type: biochemical; details: 25° C., 50 μM Gln-bNA, pH 8.0, enzyme incubated with compound for 5 minutes; read-out: IC50, inhibition of glutaminyl cyclase activity
Method: In the studies of the effect of Compound 1 (which is the subject of the present invention) on the enzymatic activity of glutaminyl cyclase in vitro, the direct inhibitory effect of Compound 1 on recombinant intracellular human glutaminyl cyclase was discovered.
The activity of glutaminyl cyclase at various Compound 1 concentrations was studied at 25° C. using the fluorescent substrate L-glutaminyl 2-naphthylamide (Gln-bNA) [Anal Biochem. 2002 Apr. 1; 303 (1): 49-56]. The reaction mixture with a volume of 100 μl contained 50 μM of a fluorogenic substrate; ˜0.2 units of human pyroglutaminyl aminopeptidase (1 unit is defined as the amount that hydrolyzes 1 micromole of pGlu-bNA per minute), and an aliquot of recombinant intracellular human glutaminyl cyclase (gQC) in […] trisaminomethane HCl and 5% glycerol, pH 8.0. The reaction was initiated by adding an aliquot of glutaminyl cyclase incubated with Compound 1 for 5 minutes to the reaction mixture.
Further progression of the reaction was monitored spectrophotometrically (excitation and emission wavelengths were 320 and 410 nm). Enzymatic activity was determined by the amount of released 2-naphthylamide (bNA), calculated based on the calibration curve. IC50 values were calculated using non-linear regression of the “inhibitor concentration”-“enzyme activity” curve.

[2] = system: mouse atopic dermatitis model; assay: Mouse atopic dermatitis model (DNCB), histological analysis of the affected ear; type: in vivo, male mice of the balb/c strain
Method: Experimental technique. The study of Compound 1 activity in the model of atopic dermatitis was carried out using the standard technique [Evidence-based Complementary and Alternative Medicine. 2012. Article ID 545497, 9 pages). For the experimental group, we selected animals of average appearance without signs of deviations, with the weight of the animal being no more than ±20% from the average value within the sex. On days 0 and 12 of the experiment, male mice of the balb/c strain were treated with 100 μl of a 2% solution of 1-chloro-2,4-dinitrobenzene (DNCB) in ethanol applied to the previously shaved areas on the back to sensitize the body. On the 17th day, 20 μl of 2% alcohol solution of DNCB was applied to the “test” right ear of the animals twice with an interval of 1 hour. Compound 1 cream with an active substance content of 0.01 wt % was administered topically, to the “test” right ear, twice: 1 and 13 hours after the last application of DNCB to the ear. The following were used as a comparison/reference/control medications: Methylprednisolone aceponate ([…] ointment for external use), pyrithione zinc (0.2% cream for external use), pimecrolimus (1% cream for external use) and cream for external use containing gamma-L-glutamylhistamine 0.01%. On the 18th day, the animals were euthanized and the histological analysis of the affected ear was performed. Histological sections with a thickness of 5 μm were stained with hematoxylin-eosin. […] The data obtained were verified using the Grubbs test, also known as the maximum normalized residual test a test used to detect outliers in a data set. The values identified as “outliers” in this test were not used for further analysis. Descriptive statistics were used for all data: the mean (M) and standard error of the mean (m) were calculated. The normal distribution of the values obtained in the experiment was verified using the Kolmogorov-Smirnov test. In the case of a normal distribution, Student's t-test was used to assess intergroup differences. […] Differences were determined at a 5% confidence level.

[3] = Solubility and dissociation of the product (NMR solvents, D2O spectrum); type: physicochemical
Text: The prepared resulting product is insoluble in solvents which are used to record NMR spectra.
It mainly contains the residual signal of the non-deuterated solvent, and low-intensity signals corresponding to the original gamma-L-glutamylhistamine.

Chain of recombinant intracellular human glutaminyl cyclase (Q9NXS2 whole entry): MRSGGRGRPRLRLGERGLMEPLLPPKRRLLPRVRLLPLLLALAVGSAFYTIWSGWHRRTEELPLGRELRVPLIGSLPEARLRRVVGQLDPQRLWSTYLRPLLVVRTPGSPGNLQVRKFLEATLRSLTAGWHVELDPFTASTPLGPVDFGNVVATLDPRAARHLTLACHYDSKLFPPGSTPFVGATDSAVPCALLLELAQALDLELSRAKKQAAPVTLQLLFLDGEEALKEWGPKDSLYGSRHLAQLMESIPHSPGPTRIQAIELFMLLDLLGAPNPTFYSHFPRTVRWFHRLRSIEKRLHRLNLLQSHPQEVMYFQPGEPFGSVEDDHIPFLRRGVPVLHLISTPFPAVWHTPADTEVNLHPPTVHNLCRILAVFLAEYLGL

Substance: zinc complex of gamma-L-glutamylhistamine [Compound 1]
- pIC50 [1]: 4.59
- action in comparison with the gamma-L-glutamylhistamine ligand ([2]; 0.01 wt % cream vs cream containing gamma-L-glutamylhistamine 0.01%): significant improvement
- effectiveness in comparison with the reference drugs methylprednisolone aceponate, zinc pyrithione and pimecrolimus ([2]; 0.01 wt % cream vs reference ointment/creams): superior performance
- influx of inflammatory cells (monocytes, dendritic cells, eosinophils and neutrophils) into the epidermis and dermis of the skin ([2]; 0.01 wt % cream, topical to right ear, 1 and 13 hours after last DNCB application, histology on day 18): to the level of intact animals
- solubility in solvents used to record NMR spectra ([3]; product of Example 2): insoluble
- dissociation in aqueous suspensions ([3]; product of Example 2, D2O NMR spectrum): insignificant dissociation
